Measured values taken from article PMC4418665, “Cyclization of the Urokinase Receptor-Derived Ser-Arg-Ser-Arg-Tyr Peptide Generates a Potent Inhibitor of Trans-Endothelial Migration of Monocytes” (PLoS ONE, 2015).
Peptide text beside a SMILES is read from it.

Columns and labels:
[1] = test system: THP-1 cells crossing HUVEC monolayer; assay: Trans-endothelial migration assay, xCELLigence RTCA; format: cell-based, human; details: 10 nM peptide, 10% FBS, monitored 10 hours, Cell Index, quadruplicate
Excerpt: Diapedesis of leukocytes plays a key role in the pathogenesis of inflammatory diseases and migration of monocytes from the blood into the sub-endothelial space is one of the earliest events. We investigated the effects of [SRSRY] on the number and morphology of THP-1 seeded to an endothelial monolayer. […] (Fig 5A). To examine the changes in morphology in more detail and quantify monocytes interacting with endothelial monolayer, we performed a subset of experiments using GFP-tagged THP-1, labeling co-cultures for F-actin and recording images by a confocal microscope. […] To further ascertain if [SRSRY] reduces trans-endothelial migration of monocytes, the ability of THP-1 cells to cross an endothelial monolayer was analyzed using the xCELLigence RTCA technology as previously described. […] At this time, reduction of impedance values, due to invading cells that interrupt monolayers was monitored in real-time for 10 hours. […]
Fig 5 [SRSRY] prevents trans-endothelial migration of THP-1 cells. […] Representative images of co-cultures analyzed by phase contrast microscopy at 100x with Scale bar: 50 μm (A) or stained with rhodamine- phalloidin and recorded by a confocal microscope (z-series with 0.25 μm intervals) at 630x with Scale bar: 10 μm (B). […] Fluorescent THP-1 cells which were adherent on the endothelial monolayer were counted on 10 fields/slide at 200x magnification. […]

human primary monocytes = assay: Primary monocyte migration in Boyden chambers; format: cell-based; details: 10 nM peptide, 90 minutes

N=C(N)NCCC[C@@H]1NC(=O)[C@H](CO)NC(=O)[C@H](Cc2ccc(O)cc2)NC(=O)[C@H](CCCNC(=N)N)NC(=O)[C@H](CO)NC1=O [[SRSRY], [Ser-Arg-Ser-Arg-Tyr]] (cyclo(RSRYS))
reduction of THP-1 trans-endothelial migration [1]: 35%
reduction of SRSRY-directed primary monocyte migration (human primary monocytes; 10 nM SRSRY): 49%
reduction of fMLF-directed primary monocyte migration (human primary monocytes; 10 nM fMLF): 50%
